From patent publication US7998989B2, “2-Imino-1,3-thiazoline-based compounds and T-type calcium channel inhibitors containing the same” (Korea Institute of Science and Technology, priority 2007, dated 2011)

How the values were obtained:
[1] = target: T1, α1G T-type calcium channel (Homo sapiens, UniProt O43497); assay: Assay for % inhibiting activity against T-type calcium channel using FDSS6000 (fluo-3 calcium imaging, KCl activation); assay type: cell-based; details: HEK293, 10 μM; HEK293 cells stably expressing α1G T-type calcium channel and Kir2.1; compounds of the examples; read-out: FDSS (% inhibition)/10uM
T1 construct: host or cells: HEK293
Procedure, shortened: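 Percent inhibition derived from […] area against untreated control (100%), after 75 s compound pre-exposure and 75 mM KCl activation. Cells: HEK293 with stable α1G plus Kir2.1, fluo-3/AM-labelled (5 μM), assayed in pH 7.4 HEPES containing 10 mM CaCl2.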

T1 sequence (O43497 whole entry): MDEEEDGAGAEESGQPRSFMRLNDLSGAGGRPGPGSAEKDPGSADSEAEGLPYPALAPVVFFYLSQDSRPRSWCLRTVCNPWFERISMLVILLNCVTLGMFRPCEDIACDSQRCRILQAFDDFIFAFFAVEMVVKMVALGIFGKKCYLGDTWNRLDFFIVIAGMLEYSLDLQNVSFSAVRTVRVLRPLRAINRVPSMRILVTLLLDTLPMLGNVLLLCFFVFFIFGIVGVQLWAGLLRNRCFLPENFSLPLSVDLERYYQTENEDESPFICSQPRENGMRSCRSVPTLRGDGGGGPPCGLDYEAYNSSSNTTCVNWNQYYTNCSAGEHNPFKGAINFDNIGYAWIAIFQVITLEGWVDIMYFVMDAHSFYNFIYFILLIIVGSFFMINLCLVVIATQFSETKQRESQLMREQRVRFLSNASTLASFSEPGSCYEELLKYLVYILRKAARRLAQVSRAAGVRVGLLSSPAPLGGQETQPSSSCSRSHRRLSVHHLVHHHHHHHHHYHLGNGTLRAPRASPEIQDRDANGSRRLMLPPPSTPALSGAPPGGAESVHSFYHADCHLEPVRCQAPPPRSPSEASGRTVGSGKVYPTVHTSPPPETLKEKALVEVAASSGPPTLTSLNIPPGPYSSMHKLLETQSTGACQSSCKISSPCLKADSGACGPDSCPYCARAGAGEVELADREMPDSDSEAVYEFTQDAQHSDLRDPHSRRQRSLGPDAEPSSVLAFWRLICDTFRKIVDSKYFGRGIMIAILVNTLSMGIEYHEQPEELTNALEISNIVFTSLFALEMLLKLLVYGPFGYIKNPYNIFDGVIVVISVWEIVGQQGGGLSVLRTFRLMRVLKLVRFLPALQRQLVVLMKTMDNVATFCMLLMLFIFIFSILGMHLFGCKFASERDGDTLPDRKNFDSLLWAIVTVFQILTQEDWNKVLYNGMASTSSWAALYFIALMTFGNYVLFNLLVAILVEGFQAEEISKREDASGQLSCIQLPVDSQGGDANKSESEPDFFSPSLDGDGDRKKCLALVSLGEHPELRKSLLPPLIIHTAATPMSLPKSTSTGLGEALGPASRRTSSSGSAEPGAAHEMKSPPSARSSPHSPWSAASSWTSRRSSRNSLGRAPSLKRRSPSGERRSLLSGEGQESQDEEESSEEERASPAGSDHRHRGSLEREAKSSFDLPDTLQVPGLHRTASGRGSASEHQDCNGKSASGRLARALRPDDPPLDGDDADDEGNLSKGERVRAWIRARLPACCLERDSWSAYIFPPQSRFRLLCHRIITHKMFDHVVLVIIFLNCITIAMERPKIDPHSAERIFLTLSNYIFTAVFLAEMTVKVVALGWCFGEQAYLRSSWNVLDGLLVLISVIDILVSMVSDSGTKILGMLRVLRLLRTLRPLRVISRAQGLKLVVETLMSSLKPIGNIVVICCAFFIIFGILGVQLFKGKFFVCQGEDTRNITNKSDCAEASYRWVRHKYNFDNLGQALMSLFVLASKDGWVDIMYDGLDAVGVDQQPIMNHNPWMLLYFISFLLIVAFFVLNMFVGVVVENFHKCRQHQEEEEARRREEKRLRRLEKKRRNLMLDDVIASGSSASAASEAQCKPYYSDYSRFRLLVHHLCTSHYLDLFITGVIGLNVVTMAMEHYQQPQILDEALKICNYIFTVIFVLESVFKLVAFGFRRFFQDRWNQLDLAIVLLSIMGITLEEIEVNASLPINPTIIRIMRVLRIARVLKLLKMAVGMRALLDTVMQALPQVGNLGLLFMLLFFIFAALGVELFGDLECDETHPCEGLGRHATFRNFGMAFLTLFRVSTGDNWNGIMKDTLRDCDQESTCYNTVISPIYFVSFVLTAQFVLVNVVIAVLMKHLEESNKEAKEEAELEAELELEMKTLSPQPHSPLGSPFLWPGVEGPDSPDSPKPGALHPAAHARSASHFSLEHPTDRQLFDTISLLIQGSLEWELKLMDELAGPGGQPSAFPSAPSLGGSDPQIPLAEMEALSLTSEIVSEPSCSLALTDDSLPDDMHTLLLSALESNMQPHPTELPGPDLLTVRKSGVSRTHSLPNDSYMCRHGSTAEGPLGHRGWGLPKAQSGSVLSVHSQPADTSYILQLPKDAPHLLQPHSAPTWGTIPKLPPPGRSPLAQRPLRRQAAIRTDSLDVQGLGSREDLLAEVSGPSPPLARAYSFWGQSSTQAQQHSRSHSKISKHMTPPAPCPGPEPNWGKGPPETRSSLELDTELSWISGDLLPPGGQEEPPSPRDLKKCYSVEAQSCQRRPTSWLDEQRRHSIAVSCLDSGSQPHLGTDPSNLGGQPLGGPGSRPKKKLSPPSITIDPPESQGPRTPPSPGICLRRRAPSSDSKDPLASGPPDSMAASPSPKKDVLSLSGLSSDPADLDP

Structure (SMILES)	inhibition at 10 µM [1] [%]	melting point [°C]
CN1C(=NCCc2ccccc2)SCC1CC(=O)Nc1cc(C(F)(F)F)cc(C(F)(F)F)c1.Cl (stereo not shown) [KHG24216, (2-phenethylimino-3-methyl-1,3-thiazolidine-4-yl)-N-(3,5-ditrifluoromethylphenyl)-acetamide hydrochloride]	36	221.3
CN1C(=NCC2CCCCC2)SCC1CC(=O)Nc1cc(C(F)(F)F)cc(C(F)(F)F)c1.Cl (stereo not shown) [KHG24218, (2-cyclohexylmethylimino-3-methyl-1,3-thiazolidine-4-yl)-N-(3,5-ditrifluoromethylphenyl)-acetamide hydrochloride]	52.8	119.6
CC(C)c1ccc(NC(=O)CC2CSC(=NCCc3ccccc3)N2C)cc1.Cl (stereo not shown) [KHG24220, (2-phenethylimino-3-methyl-1,3-thiazolidine-4-yl)-N-(4-isopropylphenyl)-acetamide hydrochloride]	40.8	225
CC(C)c1ccc(NC(=O)CC2CSC(=NCC3CCCCC3)N2C)cc1.Cl (stereo not shown) [KHG24222, (2-cyclohexylmethylimino-3-methyl-1,3-thiazolidine-4-yl)-N-(4-isopropylphenyl)-acetamide hydrochloride]	34.8	250.7
CN1C(=NCCc2ccccc2)SCC1CC(=O)Nc1ccc(Oc2ccccc2)cc1.Cl (stereo not shown) [KHG24224, (2-phenethylimino-3-methyl-1,3-thiazolidine-4-yl)-N-(4-phenoxyphenyl)-acetamide hydrochloride]	32	225.5
CN1C(=NCCc2ccccc2)SCC1CC(=O)Nc1ccc(Cl)cc1.Cl (stereo not shown) [KHG24228, (2-phenethylimino-3-methyl-1,3-thiazolidine-4-yl)-N-(4-chlorophenyl)-acetamide hydrochloride]	48.6	226.7
CN1C(=NCC2CCCCC2)SCC1CC(=O)Nc1ccc(Cl)cc1.Cl (stereo not shown) [KHG24230, (2-cyclohexylmethylimino-3-methyl-1,3-thiazolidine-4-yl)-N-(4-chlorophenyl)-acetamide hydrochloride]	33	177.1
CN1C(=NCCc2ccccc2)SCC1CC(=O)Nc1cc([N+](=O)[O-])ccc1F.Cl (stereo not shown) [KHG24232, (2-phenethylimino-3-methyl-1,3-thiazolidine-4-yl)-N-(2-fluoro-5-nitrophenyl)-acetamide hydrochloride]	33.7	196.4
CN1C(=NCC2CCCCC2)SCC1CC(=O)Nc1cc([N+](=O)[O-])ccc1F.Cl (stereo not shown) [KHG24234, (2-cyclohexylmethylimino-3-methyl-1,3-thiazolidine-4-yl)-N-(2-fluoro-5-nitrophenyl)-acetamide hydrochloride]	45.4	225
CCN1C(=NC2CCCCC2)SCC1CC(=O)Nc1cc(C(F)(F)F)cc(C(F)(F)F)c1.Cl (stereo not shown) [KHG24261, [2-cyclohexylimino-3-ethyl-1,3-thiazolidine-4-yl]-N-(3,5-ditrifluoromethylphenyl)-acetamide hydrochloride]	65	226.4
CCCCN1C(=NC2CCCCC2)SCC1CC(=O)Nc1ccc(Cl)cc1.Cl (stereo not shown) [KHG24262, [2-cyclohexylimino-3-(n-butyl)-1,3-thiazolidine-4-yl]-N-(4-chlorophenyl)-acetamide hydrochloride]	53	194.3
CCCCN1C(=NC2CCCCC2)SCC1CC(=O)Nc1ccc(Br)cc1.Cl (stereo not shown) [KHG24263, [2-cyclohexylimino-3-(n-butyl)-1,3-thiazolidine-4-yl]-N-(4-bromophenyl)-acetamide hydrochloride]	52.1	215.2
Cl.O=C(CC1CSC(=NC2CCCCC2)N1C1CC1)Nc1cc(C(F)(F)F)cc(C(F)(F)F)c1 (stereo not shown) [KHG24267, [2-cyclohexylimino-3-cyclopropyl-1,3-thiazolidine-4-yl]-N-(3,5-ditrifluoromethylphenyl)-acetamide hydrochloride]	71	197.3
Cl.O=C(CC1CSC(=NC2CCCCC2)N1C1CC1)Nc1ccc(C(F)(F)F)cc1 (stereo not shown) [KHG24268, [2-cyclohexylimino-3-cyclopropyl-1,3-thiazolidine-4-yl]-N-(4-trifluoromethylphenyl)-acetamide hydrochloride]	58.7	240.8
CCCCc1ccc(NC(=O)CC2CSC(=NC3CCCCC3)N2C2CC2)cc1.Cl (stereo not shown) [KHG24270, [2-cyclohexylimino-3-cyclopropyl-1,3-thiazolidine-4-yl]-N-(4-n-butylphenyl)-acetamide hydrochloride]	62.6	195.6
Cl.O=C(CC1CSC(=NC2CCCCC2)N1C1CC1)Nc1cc(Cl)ccc1F (stereo not shown) [KHG24271, [2-cyclohexylimino-3-cyclopropyl-1,3-thiazolidine-4-yl]-N-(5-chloro-2-fluorophenyl)-acetamide hydrochloride]	37.8	183.7

Structure (SMILES)	inhibition at 10 µM [1] [%]	melting point [°C]
CCc1ccc(NC(=O)CC2CSC(=NC3CCCCC3)N2C2CC2)cc1.Cl (stereo not shown) [KHG24272, [2-cyclohexylimino-3-cyclopropyl-1,3-thiazolidine-4-yl]-N-(4-ethylphenyl)-acetamide hydrochloride]	37.6	194.2
Cl.O=C(CC1CSC(=NC2CCCCC2)N1C1CC1)Nc1ccc(Br)cc1 (stereo not shown) [KHG24273, [2-cyclohexylimino-3-cyclopropyl-1,3-thiazolidine-4-yl]-N-(4-bromophenyl)-acetamide hydrochloride]	48.5	188.9
CCN1C(=NC2CCCCC2)SCC1CC(=O)Nc1ccc(Oc2ccccc2)cc1.Cl (stereo not shown) [KHG24276, [2-cyclohexylimino-3-ethyl-1,3-thiazolidine-4-yl]-N-(4-phenoxyphenyl)-acetamide hydrochloride]	42.8	160.3
CCCCc1ccc(NC(=O)CC2CSC(=NC3CCCCC3)N2CC)cc1.Cl (stereo not shown) [KHG24277, [2-cyclohexylimino-3-ethyl-1,3-thiazolidine-4-yl]-N-(4-n-butylphenyl)-acetamide hydrochloride]	61.1	158.4
CCN1C(=NC2CCCCC2)SCC1CC(=O)Nc1cc([N+](=O)[O-])ccc1F.Cl (stereo not shown) [KHG24278, [2-cyclohexylimino-3-ethyl-1,3-thiazolidine-4-yl]-N-(2-fluoro-5-nitrophenyl)-acetamide hydrochloride]	53.8	177
CCN1C(=NC2CCCCC2)SCC1CC(=O)Nc1ccc(C)cc1.Cl (stereo not shown) [KHG24279, [2-cyclohexylimino-3-ethyl-1,3-thiazolidine-4-yl]-N-(4-methylphenyl)-acetamide hydrochloride]	44.1	211.9
CCN1C(=NC2CCCCC2)SCC1CC(=O)Nc1ccc(C(F)(F)F)cc1.Cl (stereo not shown) [KHG24280, [2-cyclohexylimino-3-ethyl-1,3-thiazolidine-4-yl]-N-(4-trifluoromethylphenyl)-acetamide hydrochloride]	54	191
CCCCN1C(=NC2CCCCC2)SCC1CC(=O)Nc1ccc(Oc2ccccc2)cc1.Cl (stereo not shown) [KHG24281, [2-cyclohexylimino-3-(n-butyl)-1,3-thiazolidine-4-yl]-N-(4-phenoxyphenyl)-acetamide hydrochloride]	31.4	213.3
CCCCc1ccc(NC(=O)CC2CSC(=NC3CCCCC3)N2CCCC)cc1.Cl (stereo not shown) [KHG24282, [2-cyclohexylimino-3-(n-butyl)-1,3-thiazolidine-4-yl]-N-(4-n-butylphenyl)-acetamide hydrochloride]	43.6	209.1
CCCCN1C(=NC2CCCCC2)SCC1CC(=O)Nc1ccc(C(C)C)cc1.Cl (stereo not shown) [KHG24283, [2-cyclohexylimino-3-(n-butyl)-1,3-thiazolidine-4-yl]-N-(4-isopropylphenyl)-acetamide hydrochloride]	51.2	215.6
CCCCN1C(=NC2CCCCC2)SCC1CC(=O)Nc1ccc(F)cc1.Cl (stereo not shown) [KHG24284, [2-cyclohexylimino-3-(n-butyl)-1,3-thiazolidine-4-yl]-N-(4-fluorophenyl)-acetamide hydrochloride]	44.6	203.5
CCCCN1C(=NC2CCCCC2)SCC1CC(=O)Nc1ccc(C)cc1.Cl (stereo not shown) [KHG24285, [2-cyclohexylimino-3-(n-butyl)-1,3-thiazolidine-4-yl]-N-(4-methylphenyl)-acetamide hydrochloride]	46	183.4
CCCCN1C(=NC2CCCCC2)SCC1CC(=O)Nc1ccc(CC)cc1.Cl (stereo not shown) [KHG24286, [2-cyclohexylimino-3-(n-butyl)-1,3-thiazolidine-4-yl]-N-(4-ethylphenyl)-acetamide hydrochloride]	55.2	221.2
CCCN1C(=NC2CCCCC2)SCC1CC(=O)Nc1ccc(Cl)cc1.Cl (stereo not shown) [KHG24287, [2-cyclohexylimino-3-(n-propyl)-1,3-thiazolidine-4-yl]-N-(4-chlorophenyl)-acetamide hydrochloride]	58.5	206.8
CCCN1C(=NC2CCCCC2)SCC1CC(=O)Nc1ccc(Br)cc1.Cl (stereo not shown) [KHG24288, [2-cyclohexylimino-3-(n-propyl)-1,3-thiazolidine-4-yl]-N-(4-bromophenyl)-acetamide hydrochloride]	55	219.1
CCCN1C(=NC2CCCCC2)SCC1CC(=O)Nc1ccc(Oc2ccccc2)cc1.Cl (stereo not shown) [KHG24290, [2-cyclohexylimino-3-(n-propyl)-1,3-thiazolidine-4-yl]-N-(4-phenoxyphenyl)-acetamide hydrochloride]	62.2	230.3
